{"source": "patent US20060009493A1", "about": "“Indolinone hydrazides as c-Met inhibitors” (Sugen, Inc., priority 2003, published 2006)", "note": "Several values for one entry are separate records, joined by “and”; a condition that tells them apart may be missing. Equal values may be shown once.", "data": [{"target": "T1, GST fusion protein containing the Met kinase domain (Homo sapiens, UniProt P08581)", "T1 construct": "Purified GST fusion protein containing the Met kinase domain, Sugen, Inc", "T1 sequence (P08581 1078-1345 limits assumed)": "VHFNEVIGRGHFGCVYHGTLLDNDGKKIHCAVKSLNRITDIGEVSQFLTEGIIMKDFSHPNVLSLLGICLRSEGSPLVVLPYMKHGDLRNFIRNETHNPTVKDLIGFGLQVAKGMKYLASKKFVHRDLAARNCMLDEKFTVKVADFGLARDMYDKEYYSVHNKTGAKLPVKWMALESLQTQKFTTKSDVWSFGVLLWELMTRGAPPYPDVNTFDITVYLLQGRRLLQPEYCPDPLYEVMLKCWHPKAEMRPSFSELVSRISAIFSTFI", "experiment": "MET Transphosphorylation Assay (ELISA, poly(Glu,Tyr) 4:1 substrate)", "type": "biochemical", "conditions": "met transphosphorylation of poly(glutamic acid:tyrosine 4:1) substrate; two values in a cell separated by '/'", "how_it_was_run": "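Poly(Glu-Tyr)-coated wells received the GST-Met kinase domain (10 ng/well) with compound in DMSO for 15 minutes. The reaction was started with ATP/MnCl2 in HEPES pH 7.5 buffer with vanadate, run 5 minutes, and stopped with EDTA. Phosphotyrosine was detected by anti-pTyr antibody, HRP secondary and ABTS/H2O2.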", "values": [{"molecule": "O=C(Cc1ccc(O)nc1)N/N=C1\\C(=O)Nc2ccc(C(=O)N3CCC(NC4CC4)CC3)c(Cl)c21", "note": "[Example I-44, (6-Hydroxy-pyridin-3-yl)-acetic acid [(3Z)-4-chloro-5-(4-cyclopropylamino-piperidine-1-carbonyl)-2-oxo-1,2-dihydro-indol-3-ylidene]-hydrazide]", "IC50": "570 nM"}, {"molecule": "Nc1ccc(CC(=O)N/N=C2\\C(=O)Nc3ccccc32)cc1", "note": "[II-22]", "IC50": "> 20000 nM"}, {"molecule": "O=C(Cc1ccc(O)cc1)N/N=C1\\C(=O)Nc2cccc(Cl)c21", "note": "[II-39, (4-Hydroxy-phenyl)-acetic acid [(3Z)-4-chloro-2-oxo-1,2-dihydro-indol-3-ylidene]-hydrazide]", "IC50": "8 nM"}, {"molecule": "COc1ccc(CC(=O)N/N=C2\\C(=O)Nc3ccc(Br)cc32)cc1OC", "note": "[II-16, (3,4-Dimethoxy-phenyl)-acetic acid [(3Z)-5-bromo-2-oxo-1,2-dihydro-indol-3-ylidene)-hydrazide]", "IC50": "18500 nM"}, {"molecule": "O=C(Cc1ccc(F)cc1)N/N=C1\\C(=O)Nc2ccc(C(=O)N3CCC(NC4CC4)CC3)c(Cl)c21", "note": "[Example I-20, (4-Fluoro-phenyl)-acetic acid [(3Z)-4-chloro-5-(4-cyclopropylamino-piperidine-1-carbonyl)-2-oxo-1,2-dihydro-indol-3-ylidene]-hydrazide]", "IC50": "430 nM"}, {"molecule": "Cc1c(Br)ccc2c1/C(=N/NC(=O)Cc1ccc(O)cc1)C(=O)N2", "note": "[II-35, (4-Hydroxy-phenyl)-acetic acid [(3Z)-5-bromo-4-methyl-2-oxo-1,2-dihydro-indol-3-ylidene)-hydrazide]", "IC50": "16 nM"}, {"molecule": "O=C(Cn1ccc(=O)[nH]c1=O)N/N=C1\\C(=O)Nc2ccccc21", "note": "[II-71, (2,4-Dioxo-3,4-dihydro-2H-pyrimidin-1-yl)-acetic acid [(3Z)-2-oxo-1,2-dihydro-indol-3-ylidene]-hydrazide]", "IC50": "> 20000 nM"}, {"molecule": "Cc1ccc(C)c2c1NC(=O)/C2=N\\NC(=O)C(C)c1ccc(O)cc1", "note": "(stereo not drawn) [II-57, 2-(4-Hydroxy-phenyl)-propionic acid [(3Z)-4,7-dimethyl-2-oxo-1,2-dihydro-indol-3-ylidene]-hydrazide]", "IC50": "16 nM"}, {"molecule": "O=C(Cc1ccc(O)cc1)N/N=C1\\C(=O)Nc2ccc(C(=O)N3CCC(NC4CC4)CC3)c(Cl)c21", "note": "[Example I-28, (4-Hydroxy-phenyl)-acetic acid [(3Z)-4-chloro-5-(4-cyclopropylamino-piperidine-1-carbonyl)-2-oxo-1,2-dihydro-indol-3-ylidene]-hydrazide]", "IC50": "24 nM"}, {"molecule": "O=C(Cc1ccc(O)cc1)N/N=C1\\C(=O)Nc2ccc(F)cc21", "note": "[II-19, (4-Hydroxy-phenyl)-acetic acid [(3Z)-5-fluoro-2-oxo-1,2-dihydro-indol-3-ylidene]-hydrazide]", "IC50": "29 nM"}, {"molecule": "COc1cc(CC(=O)N/N=C2\\C(=O)Nc3c(Cl)ccc(Cl)c32)cc(OC)c1O", "note": "[II-100, (4-Hydroxy-3,5-dimethoxy-phenyl)-acetic acid [(3Z)-4,7-dichloro-2-oxo-1,2-dihydro-indol-3-ylidene)-hydrazide]", "IC50": "> 20000 nM"}, {"molecule": "O=C1Nc2c(Cl)ccc(Cl)c2/C1=N/NC(=O)C1Cc2ccccc2C1", "note": "[Example I-57]", "IC50": "> 20000 nM"}, {"molecule": "O=C(Cc1ccc(O)c(F)c1)N/N=C1\\C(=O)Nc2c(Cl)ccc(Cl)c21", "note": "[II-55, (3-Fluoro-4-hydroxy-phenyl)-acetic acid [(3Z)-4,7-dichloro-2-oxo-1,2-dihydro-indol-3-ylidene]-hydrazide]", "IC50": "< 9 nM"}, {"molecule": "O=C(Cc1ccc(O)cc1)N/N=C1\\C(=O)Nc2c(C(=O)O)cccc21", "note": "[Example I-47, (3Z)-3-{[2-(4-Hydroxy-phenyl)-acetyl]-hydrazono}-2-oxo-2,3-dihydro-1H-indole-7-carboxylic acid]", "IC50": "14600 nM"}, {"molecule": "O=C(Cc1cc(=O)[nH]c(=O)[nH]1)N/N=C1\\C(=O)Nc2ccccc21", "note": "[II-80, (2,6-Dioxo-1,2,3,6-tetrahydro-pyrimidin-4-yl)-acetic acid [(3Z)-2-oxo-1,2-dihydro-indol-3-ylidene)-hydrazide]", "IC50": "> 20000 nM"}, {"molecule": "O=C(Cc1ccc(O)cc1)N/N=C1\\C(=O)Nc2c(Br)cc(Cl)cc21", "note": "[II-32, (4-Hydroxy-phenyl)-acetic acid [(3Z)-7-bromo-5-chloro-2-oxo-1,2-dihydro-indol-3-ylidene]-hydrazide]", "IC50": "54 nM"}, {"molecule": "COC(C(=O)N/N=C1\\C(=O)Nc2ccccc21)c1ccccc1", "note": "(stereo not drawn) [Example I-5, Methoxy-phenyl-acetic acid [(3Z)-2-oxo-1,2-dihydro-indol-3-ylidene]-hydrazide]", "IC50": "> 20000 nM and 13600 nM"}, {"molecule": "O=C(Cc1ccc(O)c(Cl)c1)N/N=C1\\C(=O)Nc2ccccc21", "note": "[II-42]", "IC50": "36 nM"}, {"molecule": "O=C(Cc1ccc(O)cc1)N/N=C1\\C(=O)Nc2ccc(Br)cc21", "note": "[II-20, (4-Hydroxy-phenyl)-acetic acid [(3Z)-5-bromo-2-oxo-1,2-dihydro-indol-3-ylidene]-hydrazide]", "IC50": "24 nM"}, {"molecule": "N#Cc1cc(CC(=O)N/N=C2\\C(=O)Nc3c(Cl)ccc(Cl)c32)ccc1O", "note": "[II-109, (3-Cyano-4-hydroxy-phenyl)-acetic acid [(3Z)4,7-dichloro-2-oxo-1,2-dihydro-indol-3-ylidene)-hydrazide]", "IC50": "1620 nM"}, {"molecule": "CN1CCN(C(=O)c2ccc3c(c2)/C(=N/NC(=O)Cc2ccc(O)cc2)C(=O)N3)CC1", "note": "[Example I-12, (4-Hydroxy-phenyl)-acetic acid [(3Z)-5-(4-methyl-piperazine-1-carbonyl)-2-oxo-1,2-dihydro-indol-3-ylidene]-hydrazide]", "IC50": "78 nM"}, {"molecule": "COc1cc(CC(=O)N/N=C2\\C(=O)Nc3ccccc32)ccc1O", "note": "[II-40, (4-Hydroxy-3-methoxy-phenyl)-acetic acid [(3Z)-2-oxo-1,2-dihydro-indol-3-ylidene]-hydrazide]", "IC50": "240 nM"}, {"molecule": "O=C1Nc2ccccc2/C1=N/NC(=O)C1(c2ccccc2)CC1", "note": "[Example I-6, 1-Phenyl-cyclopropanecarboxylic acid [(3Z)-2-oxo-1,2-dihydro-indol-3-ylidene]-hydrazide]", "IC50": "> 20000 nM"}, {"molecule": "O=C(CCc1ccc(O)cc1)N/N=C1\\C(=O)Nc2cccc(Cl)c21", "note": "[II-83, 3-(4-Hydroxy-phenyl)-propionic acid [(3Z)-4-chloro-2-oxo-1,2-dihydro-indol-3-ylidene]-hydrazide]", "IC50": "81 nM"}, {"molecule": "O=C(Cc1ccc(O)c(Br)c1)N/N=C1\\C(=O)Nc2ccccc21", "note": "[II-101, (3-Bromo-4-hydroxy-phenyl)-acetic acid [(3Z)-2-oxo-1,2-dihydro-indol-3-ylidene]-hydrazide]", "IC50": "54 nM"}, {"molecule": "O=C(Cc1ccc(O)c(Br)c1)N/N=C1\\C(=O)Nc2c(Cl)ccc(Cl)c21", "note": "[II-102, (3-Bromo-4-hydroxy-phenyl)-acetic acid [(3Z)-4,7-dichloro-2-oxo-1,2-dihydro-indol-3-ylidene]-hydrazide]", "IC50": "190 nM"}, {"molecule": "Cc1ccc(Cl)c2c1NC(=O)/C2=N\\NC(=O)C(C)c1ccc(F)cc1", "note": "(stereo not drawn) [II-114, 2-(4-Fluoro-phenyl)-propionic acid [(3Z)4-chloro-7-methyl-2-oxo-1,2-dihydro-indol-3-ylidene]-hydrazide]", "IC50": "200 nM"}, {"molecule": "COc1ccc(C(C)C(=O)N/N=C2\\C(=O)Nc3ccccc32)cc1", "note": "(stereo not drawn) [II-17]", "IC50": "230 nM"}, {"molecule": "COc1cccc(CC(=O)N/N=C2\\C(=O)Nc3ccccc32)c1", "note": "[II-12, (3-Methoxy-phenyl)-acetic acid [(3Z)-2-oxo-1,2-dihydro-indol-3-ylidene]-hydrazide]", "IC50": "7200 nM"}, {"molecule": "COc1c(O)c2c(c(Cl)c1Cl)NC(=O)/C2=N\\NC(=O)Cc1ccc(O)cc1", "note": "[II-97, (4-Hydroxy-phenyl)-acetic acid [(3Z)-6,7-dichloro-4-hydroxy-5-methoxy-2-oxo-1,2-dihydro-indol-3-ylidene]-hydrazide]", "IC50": "320 nM"}, {"molecule": "CC(C(=O)N/N=C1\\C(=O)Nc2ccccc21)c1ccc(O)cc1", "note": "(stereo not drawn) [II-18, 2-(4-Hydroxy-phenyl)-propionic acid [(3Z)-2-oxo-1,2-dihydro-indol-3-ylidene]-hydrazide]", "IC50": "30 nM"}, {"molecule": "O=C(Cc1ccc(O)c(Cl)c1)N/N=C1\\C(=O)Nc2c(Cl)ccc(Cl)c21", "note": "[II-54, (3-Chloro-4-hydroxy-phenyl)-acetic acid [(3Z)-4,7-dichloro-2-oxo-1,2-dihydro-indol-3-ylidene)-hydrazide]", "IC50": "< 9 nM"}, {"molecule": "O=C(Cc1cnc(=O)[nH]c1)N/N=C1\\C(=O)Nc2ccccc21", "note": "[II-89, (2-Oxo-1,2-dihydro-pyrimidin-5-yl)-acetic acid [(3Z)-2-oxo-1,2-dihydro-indol-3-ylidene]-hydrazide]", "IC50": "12600 nM"}, {"molecule": "CS(=O)(=O)c1ccc(CC(=O)N/N=C2\\C(=O)Nc3ccccc32)cc1", "note": "[Example I-21, (4-Methanesulfonyl-phenyl)-acetic acid [(3Z)-2-oxo-1,2-dihydro-indol-3-ylidene]-hydrazide]", "IC50": "> 20000 nM"}, {"molecule": "O=C(CCc1ccc(O)cc1)N/N=C1\\C(=O)Nc2c(Cl)ccc(Cl)c21", "note": "[II-76, 3-(4-Hydroxy-phenyl)-propionic acid [(3Z)-4,7-dichloro-2-oxo-1,2-dihydro-indol-3-ylidene]-hydrazide]", "IC50": "46 nM"}, {"molecule": "O=C(Cc1ccc(O)c([N+](=O)[O-])c1)N/N=C1\\C(=O)Nc2ccccc21", "note": "[II-46, (4-Hydroxy-3-nitro-phenyl)-acetic acid [(3Z)-2-oxo-1,2-dihydro-indol-3-ylidene]-hydrazide]", "IC50": "610 nM"}, {"molecule": "O=C(Cc1cc(=O)[nH]c(=O)[nH]1)N/N=C1\\C(=O)Nc2c(Cl)ccc(Cl)c21", "note": "[II-82, (2,6-Dioxo-1,2,3,6-tetrahydro-pyrimidin-4-yl)-acetic acid [(3Z)-4,7-dichloro-2-oxo-1,2-dihydro-indol-3-ylidene]-hydrazide]", "IC50": "> 20000 nM"}, {"molecule": "O=C(Cc1cc[n+]([O-])cc1)N/N=C1\\C(=O)Nc2ccccc21", "note": "[II-37, (1-Oxy-pyridin-4-yl)-acetic acid [(3Z)-2-oxo-1,2-dihydro-indol-3-ylidene]-hydrazide]", "IC50": "10800 nM"}, {"molecule": "Cc1cc(CCN2CCCC2)c(C)c2c1NC(=O)/C2=N\\NC(=O)C(C)c1ccc(F)cc1", "note": "(stereo not drawn) [Example I-62, 2-(4-Fluoro-phenyl)-propionic acid [(3Z)-4,7-dimethyl-2-oxo-5-(2-pyrrolidin-1-yl-ethyl)-1,2-dihydro-indol-3-ylidene]-hydrazide]", "IC50": "980 nM"}]}]}
